Tests used:
Format in all cases: in vivo, Wistar strain rats
Settings in all cases: cabergoline oral 0.05 mg/kg b.w. over 14 days
[1] = test system: experimental model for central retinal vein occlusion; experiment: Blood-retinal barrier permeability (dextran method) and retinal thickness (OCT) in laser model for central retinal vein occlusion
Experimental: (§1) The Effects of Administration of Cabergoline on Permeability of Blood-Retinal Barrier and Retinal Thickness in an Experimental Model for Central Retinal Vein Occlusion. The research was conducted on an experimental model of Wistar strain rats. Central retinal vein occlusion was performed using a 532 nm laser. In the course of the experiment, the following parameters were assessed: permeability of blood-retinal barrier using the dextran method (BRB) and the thickness of the retina using optical coherence tomography (OCT). In the experiment, 4 experimental groups were compared: healthy animals without cabergoline administration, healthy animals with cabergoline administration (14 days of use), animals with central retinal vein occlusion without cabergoline, animals with central retinal vein occlusion with cabergoline (14 days of use). Cabergoline was administered to the animals in oral form at a dose of 0.05 mg/kg b.w. over 14 days.

[2] = test system: experimental model for choroidal neovascularization (CNV); experiment: Blood-retinal barrier permeability (dextran method) and retinal thickness (OCT) in laser model for choroidal neovascularization (CNV)
Experimental: as §1, with “Choroidal Neovascularization (CNV).” for “Central Retinal Vein Occlusion.”, “Choroidal neovascularization (CNV)” for “Central retinal vein occlusion”, “performed by photocoagulation of the retina” for “performed”, “CNV” for “central retinal vein occlusion”

[3] = test system: experimental model for diabetic retinopathy; experiment: Blood-retinal barrier permeability (dextran method) and retinal thickness (OCT) in streptozocin model for diabetic retinopathy
Experimental: The Effects of Administration of Cabergoline on Permeability of Blood-Retinal Barrier and on Retinal Thickness in an Experimental Model for Diabetic Retinopathy The research was conducted on an experimental model of Wistar strain rats. In order to cause diabetes, the rats were injected intraperitoneally with streptozocin at a dose of 60 mg/kg b.w. After 30 days since administration of streptozocin blood glucose level was checked and only rats with the blood glucose levels of over 250 mg % were qualified for the experiment. In the course of the experiment, the following parameters were assessed: permeability of blood-retinal barrier using the dextran method (BRB) and the thickness of the retina using optical coherence tomography (OCT). In the experiment, 4 experimental groups were compared: healthy animals without cabergoline administration, healthy animals with cabergoline administration (14 days of use), animals with diabetes without cabergoline, animals with diabetes with cabergoline (14 days of use). Cabergoline was administered to the animals in oral form at a dose of 0.05 mg/kg b.w. over 14 days.

[4] = rats with central retinal vein occlusion
[5] = rats with streptozocin diabetes

In the case of C=CCN1C[C@H](C(=O)N(CCCN(C)C)C(=O)NCC)C[C@@H]2c3cccc4[nH]cc(c34)C[C@H]21 [cabergoline, Cabergoline], the “BRB (permeability of blood-retinal barrier, dextran method)” value (“BRB” below) ([1]; healthy rats) is reported as 25.1 ± 4.2 µL/g/min, the “OCT (thickness of the retina)” value ([1]; healthy rats) is reported as 258 ± 13 μm and the “BRB” value [1, 4] is reported as 33.3 ± 12.9 µL/g/min. The “OCT (thickness of the retina)” value [1, 4] was 343 ± 28 μm, the “BRB” value ([2]; healthy rats) was 28.5 ± 6.6 µL/g/min and the “OCT (thickness of the retina)” value ([2]; healthy rats) was 221 ± 22 μm. The “BRB” value ([2]; rats with CNV) was 37.4 ± 15.2 µL/g/min, the “OCT (thickness of the retina)” value ([2]; rats with CNV) was 283 ± 17 μm and the “BRB” value ([3]; healthy rats) was 22.4 ± 7.5 µL/g/min. The “OCT (thickness of the retina)” value ([3]; healthy rats) was 281 ± 14 μm, the “BRB” value [3, 5] was 35.8 ± 10.6 µL/g/min and the “OCT (thickness of the retina)” value [3, 5] was 320 ± 35 μm.

From US11324740B2, “Use of agonists of type-2 dopaminergic receptors in treatment of conditions caused by elevated vascular endothelial growth factor levels” (priority 2016, dated 2022)
